The source of these data is US4450292A, “Derivatives of phenyl aliphatic carboxylic acids, and use thereof in treating gastric and gastro-duodenal ailments” (Roussel Uclaf, priority 1981, dated 1984).

For orientation: LD50 means the dose expected to kill half of the subjects tested. A higher LD50 goes with lower toxicity.

Counter-ions that a name gives are not always drawn.

Assay type in all cases: in vivo
Series [1] has as its system ulcers in rats at the level of the stomach. Briefly: Anti-ulcer activity, SHAY technique (ligating of the pylorus). Particulars: by mouth, about 16 hours after treatment. The source says:
(1) Determination of the anti-ulcer activity of the compounds of Examples 1 to 4
The technique used is described by SHAY et al in Gastroenterology, 5, 43, (1945).
SHAY'S technique consists in inducing ulcers in rats at the level of the stomach by ligating of the pylorus.
The animals are anesthetized with ether. A longitudinal incision is made about 1 cm below the sternum, the glandular portion of the stomach and the duodenum are exposed and a ligature is applied a few millimeters below the pylorus. The muscular layer is left as is and the skin is sutured by two clips.
The animals immediately receive the dispersant or the substance to be studied by mouth in a volume of 0.5 cc per hundred grams and are kept without food or drink until sacrificed by carotic venesection, effected about 16 hours after the treatment.
Before removing the stomach, a ligature is placed around the cardia.
The gastric fluid is collected in order to measure the pH thereof.
The stomach is then opened along the greater curvature, rinsed in physiological serum and spread out on millimeter paper in order to be examined under a binocular lens.
The seriousness of the lesions is evaluated macroscopically, being rated from 0 to 4 for each stomach.
For each lot of rats the average intensity of the ulcerations is determined and the protection calculated by referring the average index of the group to the average index of the control group.
The pH values of the gastric liquid are also determined for the treated animals and the control animals.

Series [2] can be described thus: Acute toxicity, LD50 lethal dose after oral administration to mice. Particulars: mouse, in vivo, po, orally. On the procedure: (§1) (3) Determination of the acute toxicity
(§2) The LD50 lethal dose of the derivatives of Examples 1 to 9 after administration orally to mice was evaluated.

A further series has as its system gastric fluid. The series is described as follows: Anti-ulcer activity, SHAY technique as modified by P. H. Guth (pylorus ligature plus aspirin), pH of the gastric fluid. The conditions noted are these: rats, orally, aspirin 200 mg/kg. On the procedure:
(2) Determination of the anti-ulcer activity of the compounds of Examples 7 and 8
The technique used is described by SHAY et al in Gastroenterology, 5, 43 (1945) as modified by P. H. Guth in Gastroenterology, 76, 88 (1976).
After 48 hours fast, rats receive the dispersant or the substance to be studied orally in a volume of 1 cc/100 g.
One hour later the animals are anesthetized with ether. A longitudinal incision is made about 1 cm below the sternum, the glandular part of the stomach and the duodenum are exposed and a ligature is placed a few millimeters below the pylorus. The muscular layer is sutured and the skin is clipped.
An hour later, 200 mg/kg of aspirin dispersed in a 1% suspension of methyl cellulose in water to which 150 millimoles of hydrochloric acid have been added are administered orally in a volume of 0.5 cc/100 g.
Two hours after this last administration, the animals are sacrificed by means of carbon dioxide.
Before removing the stomach, a ligature is placed above the cardia.
The gastric fluid is collected in order to measure its pH for the treated animals and the control animals.

For another series, the system named is mice. Briefly: Acute toxicity, LD50 lethal dose after oral administration to mice. Particulars: orally. On the procedure:
as §1, §2

On to `COc1cc(OC)c(C(=O)CC(O)C(=O)O)cc1OC` (centres unmarked) [Example 1, 4-(2,4,5-trimethoxyphenyl)-4-oxo-2-hydroxy butanoic acid], for which, in series [1] (100 mg/kg), the “Ulcerization % Protection As Compared with the Controls” value worked out at 43% and the “pH of the Gastric Fluid, Treated Animals” value amounted to 2.5. Also, the LD50 in series [2] stood at 1000 mg/kg.

Consider `COc1cc(OC)c(C(=O)/C=C/C(=O)O)cc1OC` [Example 2, (E) 4-(2,4,5-trimethoxyphenyl)-4-oxo-2-butenoic acid], for which, in series [1] (4 mg/kg), the “Ulcerization % Protection As Compared with the Controls” value is 72% and the “pH of the Gastric Fluid, Treated Animals” value is listed as 3.6. In series [1] (20 mg/kg), the “Ulcerization % Protection As Compared with the Controls” value is reported as 100% and the “pH of the Gastric Fluid, Treated Animals” value amounted to 4.6. Further, the LD50 in series [2] is 600 mg/kg.

Take `COc1cc(C(=O)CC(O)C(=O)O)cc(OC)c1OC` (centres unmarked) [Example 3, 4-(3,4,5-trimethoxyphenyl)-4-oxo-2-hydroxy butanoic acid]: in series [1] (100 mg/kg), the “Ulcerization % Protection As Compared with the Controls” value turned out to be 45% and the “pH of the Gastric Fluid, Treated Animals” value worked out at 3.7. The 50% lethal dose (LD50) in series [2] is 1000 mg/kg.

As for `COc1cc(C(=O)/C=C/C(=O)O)cc(OC)c1OC` [Example 4, (E)-4-(3,4,5-trimethoxyphenyl)-4-oxo-2-butenoic acid], the “Ulcerization % Protection As Compared with the Controls” value is listed as 38% in series [1] (0.8 mg/kg), 65% in series [1] (4 mg/kg) and 98% in series [1] (20 mg/kg). In addition, the “pH of the Gastric Fluid, Treated Animals” value in series [1] (0.8 mg/kg) stood at 1.8; in series [1] (4 mg/kg), 3.0; in series [1] (20 mg/kg) it was 2.4. The LD50 in series [2] was found to be 600 mg/kg.

With `COc1cc(OC)c(C(=O)/C=C/C(=O)O)c(OC)c1` [Example 5, (E)-4-(2,4,6-trimethoxyphenyl)-4-oxo-2-butenoic acid], in series [2], the LD50 stood at 200 mg/kg.

Consider `COc1cc(C(=O)/C=C/C(=O)O)cc(OC)c1OC` [Example 7, Morpholine salt of (E) 4-(3,4,5-trimethoxyphenyl)-4-oxo-2-butenoic acid], for which the “pH of the Gastric Fluid, Treated Animals” value was determined as 2 in the series with gastric fluid (4 mg/kg), 2.4 in the series on gastric fluid (20 mg/kg) and 4.1 in the series on gastric fluid (100 mg/kg). Also, the LD50 in the series with mice is listed as more than 400 mg/kg.

For `COc1cc(C(=O)/C=C/C(=O)O)cc(OC)c1OC` [Example 8, Sodium salt of (E)-4-(3,4,5-trimethoxyphenyl)-4-oxo-2-butenoic acid], the “pH of the Gastric Fluid, Treated Animals” value in the series on gastric fluid (0.8 mg/kg) amounted to 2.3; in the series with gastric fluid (4 mg/kg) it was 2.2; in the series with gastric fluid (20 mg/kg) it was 3; in the series with gastric fluid (100 mg/kg) it was 4.6. For the same molecule, in the series with mice, the LD50 was more than 400 mg/kg.

In the series on mice, `COc1cc(C(=O)/C=C/C(=O)O)cc(OC)c1OC` [Example 9, Piperidine salt of (E)-4-(3,4,5-trimethoxyphenyl)-4-oxo-2-butenoic acid] showed an LD50 of more than 400 mg/kg.
